# Experimental data: US6967102B1, “Nitric oxide manipulation of muscle satellite cell activation” (University of Manitoba, priority 1999, dated 2005)
# Entries after “also recorded” stand apart in the source; their conditions may differ.
# Tests used:
# dystrophic muscle = assay: Longer term systemic L-NAME treatment, severity of dystrophy in mdx mice; assay type: in vivo; settings: systemic L-NAME (3 weeks / drinking water); young mdx animals; diaphragm, SOL, EDL, TA
# Source text: The present results address for the first time the initial steps of satellite cell activation. A single exposure to NOS inhibition had subtle effects on myotube formation that echo NO-stimulated myoblast fusion in vitro. Longer NOS inhibition reduced the effectiveness of repair and restricted its distribution, in agreement with the idea that shear-induced responses become attenuated longitudinally away from the injury. The significant negative effect of pharmacologic NOS inhibition on myogenic repair reported here was further extended by the recent preliminary studies on repair in NOS-I knockout mice (n≈2), and during longer term NOS inhibition in mdx mice (n≈22).
# A study of 4 groups (n≈10/group) of mdx dystrophic mice treated with placebo, deflazacort, deflazacort plus L-NAME (a NOS inhibitor), or deflazacort plus L-arginine (a […]). Deflazacort was given by daily injection (ip) and L-NAME and L-arginine were given systemically in the drinking water.
# satellite cells [1] = assay: Cell yield time course 0–30 min after crush injury of right tibialis anterior, normal mice; assay type: in vivo, normal mice (C57BL/6)
# [2] = Muscle weight to body weight (edema) and haemorrhage after crush injury, mdx mice; assay type: in vivo; settings: L-NAME ip 30 min before crush
# regenerating mdx muscles = assay: Muscle regeneration 6 days after crush injury, mdx mice; assay type: in vivo; settings: single L-NAME injection
# Protocol: (§1) The time course of treatment effects was determined at two intervals; during the early response 0, 5, 10 and 30 min after injury, and over the longer term after 6 days recovery. Short term experiments were repeated at least twice. The longer term animals were maintained either on plain drinking water or water containing fresh L-NAME at 12.5 mg/100 ml (30 mg/kg/day), based on an intake of 6–7 ml/day/mouse (McIntosh et al., 1994. 17:444–453). In the longer term repair studies, there were 4 normal mice in each of saline- and L-NAME-treated groups. An additional 2 normal and 2 mdx mice were injected once before injury with L-NAME and given plain water for 6 days.
# Sections and cultures were viewed on an Olympus microscope equipped with epifluorescence and phase contrast optics. Observations were based on systematic viewing of 2–4 longitudinal sections per muscle (separated by […]). In the case of muscle regenerating from crush injury, observations (without knowledge of treatment group) were made in pre-set fields of muscle from the central crush region, the adjacent regenerating region and the surviving region as reported (McIntosh et al. (1994) Muscle Nerve 17: 444–453). Representative photographs of muscle fibers and satellite cells were taken on over 700 frames of ASA 400 Fuji Sensia slide film. […]
# regenerating muscle = assay: Muscle regeneration 6 days after crush injury, normal mice; assay type: in vivo
# Protocol: as §1
# In the longer term study of NOS inhibition during repair, saline and L-NAME-treated normal mice recovered for 6 days. Two mice per group were injected 2 hr before sacrifice with BrdU (i.p., 1.6 mg in 0.4 ml saline) and sections were immunostained using anti-BrdU antibodies as above.
# (§2) Sections and cultures were viewed on an Olympus microscope equipped with epifluorescence and phase contrast optics. Observations were based on systematic viewing of 2–4 longitudinal sections per muscle (separated by >100m). In the case of muscle regenerating from crush injury, observations (without knowledge of treatment group) were made in pre-set fields of muscle from the central crush region, the adjacent regenerating region and the surviving region as reported (McIntosh et al. (1994) Muscle Nerve 17: 444–453). Representative photographs of muscle fibers and satellite cells were taken on over 700 frames of ASA 400 Fuji Sensia slide film. Where stated, the number of satellite cells observed in each category, group or condition was estimated from photographed slides rather than from direct counts made during observations under oil immersion. Selected slides were scanned (Olympus Film Scanner ES-10, Olympus Optical Co., Tokyo), formatted into plates with little or no enlargement and printed (Freehand 8.0, Macromedia Inc.).
# satellite cells [3] = assay: Satellite cell morphometry from electron micrographs 0 and 10 min after crush injury; assay type: in vivo, mice; settings: L-NAME pretreatment
# Source text: Measurements of cell area (size increases in activated cells), nucleus-to-cytoplasm ratio (a measure that decreases with activation), and cytoplasmic density (a measure that decreases in activation with the increase in cell size, despite the hypertrophy of cytoplasmic organelles) were made from electron micrographs without knowledge of their source. Two investigators had to agree on the satellite cell identification before cells were included in the study, with the stipulation that cell profiles had complete nuclei and cell membrane visible in a photograph or montage (all photographs taken at identical magnification of 10,000×) Satellite cells originated from the central crush-injured region of muscles collected from each mouse (n=4). Cytoplasmic density was determined as [the integrated cell density minus the integrated nuclear density] divided by [cell area minus nuclear area]. A computer was used to scan micrograph negatives, and digital images were analyzed using the program NIH Image for morphometry.
# [4] = Muscle weight to body weight (edema) and haemorrhage after crush injury, normal mice; assay type: in vivo, normal mice (C57BL/6); settings: ip treatment 30 min before crush; 0–30 min after injury
# satellite cells [5] = assay: Cell yield time course 0–30 min after crush injury of right tibialis anterior, mdx mice; assay type: in vivo; settings: L-NAME
# satellite cells [6] = assay: Histology and immunostaining (m-cadherin, c-met, HGF/SF) of satellite cells 0 and 10 min after crush; assay type: in vivo, normal mice
# Protocol: as §2, with “A separate experiment was conducted to study the immediate effects of injury on muscle and satellite cell histology. […] Muscles were bisected longitudinally, and half of each muscle was frozen in OCT. for cryosectioning. Sections were stained with H&E or immunostained using primary antibodies to c-met (1:400), HGF/SF (1:1000, R&D Systems) or developmental myosin heavy chain ([…], 1:250, Novocastra Laboratories) as reported ([…] et al. (1996) Exp. Cell Res. 22: 214-222; Tatsumi et al. (1998) Dev. Biol. 194: 114-128) or against m-cadherin (1:50, Santa Cruz). […] Sections” for “Sections”, “Observations were based on systematic viewing of 2–4 longitudinal sections per muscle (separated by >100m).” left out, “444-453).” for “444–453).”, “Sensia” left out
smiles,measurement,setting,value
"COC(=O)[C@@H](N)CCCNC(=N)N[N+](=O)[O-] [L-NAME, Nω-nitro-L-arginine methyl ester]",severity of dystrophy,dystrophic muscle,appeared to increase the severity of dystrophy; also recorded: makes dystrophy more severe
same,time of delayed peak RTA yield after injury,"satellite cells [1]; L-NAME 3 mg/kg, one experiment",< 10 min
same,LTA cell yield at 10 min relative to 0 min,satellite cells [1]; L-NAME 7.5 mg/kg,2 fold
same,RTA cell yield at 10 min relative to 0 min,satellite cells [1]; L-NAME 7.5 mg/kg,3.5 fold
same,time after injury until which the increased RTA cell yield is delayed,satellite cells [1]; L-NAME 7.5 mg/kg ip 30 min before crush,10 min
same,initial injury-induced rise in RTA cell yield,"satellite cells [1]; L-NAME 7.5 mg/kg ip 30 min before crush, 0 min",preventing the initial injury-induced rise in RTA yield; also recorded: absent after L-NAME
same,LTA cell yield lower than in saline-treated mice,"satellite cells [1]; L-NAME 7.5 mg/kg, 0 min",15%
same,RSOL cell yield lower than in saline-treated mice,"satellite cells [1]; L-NAME 7.5 mg/kg, 0 min",50%
same,fewer cells isolated from RTA than LTA,"satellite cells [1]; L-NAME 7.5 mg/kg, 0 min",30%
same,time of delayed peak RTA yield after injury,"satellite cells [1]; L-NAME 10 or 12.5 mg/kg, one experiment at each dose",> 10 min
same,peak cell yield in RTA,satellite cells [1]; L-NAME ip 30 min before crush,delayed (not reduced)
same,peak in cell yield from LTA (at 10 min.),satellite cells [1]; L-NAME ip 30 min before crush,reduced but not delayed; also recorded: reduced by L-NAME treatment
same,increase in RTA weight after injury,[2],abolished the increase in RTA weight for 30 min
same,"new myotubes in continuity with satellite cells, anchored inside external lamina sheaths",regenerating mdx muscles; 6 days,roughly 5%
same,regenerating muscle over 6 days,regenerating mdx muscles; n=2,subtle changes in regenerating mdx muscles
same,muscle regeneration,"regenerating muscle; L-NAME in drinking water (30 mg/kg/day) over 6 days of repair, n=4",muscle regeneration was reduced; also recorded: reduces normal muscle regeneration
same,density of myotubes per field vs saline-treated mice,regenerating muscle; L-NAME over 6 days of repair,much lower density per field
same,branched myotubes,regenerating muscle; longer term L-NAME exposure of regenerating mdx and normal muscle in vivo,high prevalence of branched myotubes
same,myotubes appearing as incompletely fused blocks of cells,"regenerating muscle; single injection of L-NAME before injury, 6 days, estimated",5–10%
same,muscle regeneration after 6 days,"regenerating muscle; single injection of L-NAME before injury, n=2",subtle effects on muscle regeneration
same,cell area,"satellite cells [3]; 0 minutes post-crush, n = 8",9.0 ± 1.6 arbitrary units
same,cytoplasmic density,"satellite cells [3]; 0 minutes post-crush, n = 8",91.7 ± 5.8 arbitrary units
same,nucleus:cytoplasm ratio,"satellite cells [3]; 0 minutes post-crush, n = 8",70.2 ± 1.7%
same,satellite cell activation state by morphologic criteria,satellite cells [3]; 0–10 minutes post-crush,maintained quiescence over 10 minutes
same,cell area,"satellite cells [3]; 10 minutes post-crush, n = 3",6.3 ± 1.1 arbitrary units
same,cytoplasmic density,"satellite cells [3]; 10 minutes post-crush, n = 3",66.2 ± 2.1 arbitrary units
same,nucleus:cytoplasm ratio,"satellite cells [3]; 10 minutes post-crush, n = 3",52.0 ± 8.7 %
same,muscle weight profile (RTA relative to LTA; muscle weight as proportion of body weight),[4],RTA weight increased only at 10 min. relative to LTA
same,increase of LTA cell yield at 10 min,satellite cells [5],50%
same,RSOL cell yield,satellite cells [5]; 0–30 min,did not change over time
same,RTA cell yield time course,satellite cells [5]; 0–30 min,rose slowly over the 30 min. time course; also recorded: decreased and further delayed the peak of myogenic cells; also recorded: prevented the increased RTA yield at 10 min
same,normal rapid changes in satellite cell size and position,satellite cells [6]; L-NAME treatment 30 min before crush,consistently delayed and restricted
same,satellite cells thin and attenuated in both RTA and LTA,"satellite cells [6]; L-NAME-treated mice, 0 min, more than 70 satellite cells identified",85%
same,satellite cells with c-met and HGF/SF co-localized,"satellite cells [6]; L-NAME-treated mice, 10 min after injury",at least 70%
